# Measurements as given in US20090018136A1, “METHODS AND COMPOSITIONS FOR THE TREATMENT OF VASCULAR DISEASE” (priority 2005, published 2009).
# Assays:
# coronary vessel = conditions: in vivo; cited from earlier work
# hypertensive patients [1] = test: Study 2: dose-response of oral BH4 on blood pressure and heart rate, after 2-week vitamin C run-in; type: in vivo, human
# Description: Prior studies have used parenteral infusion of BH4 or a single oral dose; thus it was not known whether long-term oral BH4 over a period of days to weeks would result in a sustained improvement in endothelial dysfunction. […] Two studies were conducted to investigate the duration of action of oral BH4 and the response of hypertensive subjects to different doses of BH4. […] Patients were continued on their current anti-hypertensive therapy which remained unchanged. […] BH4 powder was obtained from Schircks Laboratories (Jona, Switzerland). BH4 when administered with vitamin C was compounded with vitamin C at a ratio of 1 mg of vitamin C/1 mg BH4 into appropriate sized capsules. Subjects were advised to keep the pills in a freezer or refrigerator. For both study 1 and study 2, the primary end point after statistical analysis was a reduction of systolic, mean and diastolic BP during BH4 therapy. Secondary end points included improvement of endothelial function as FMD. Linear mixed effects models for repeated measures data were used to analyze change in BP from baseline to end of treatment period and differences in change between 100 mg and 200 mg dose groups. A quadratic term for week was included in the model to account for non-linear trends over the treatment period. Dose, week and week squared were the main effect terms in the model; dose by week and dose by week squared were the interaction terms in the model. Significant interaction terms indicate a difference in the pattern of change between the two dose groups. FMD data was analyzed using the two-tailed student t-test. […] Of the 20 subjects who qualified for participation, 4 were excluded during the run-in phase because of inability to return for follow-up appointments. There were 6 male subjects, mean age 59.5±8.3 years. Eight subjects received 200 mg b.i.d (twice daily) of oral BH4 and 8 received 100 mg b.i.d. of oral BH4. […] Because BH4 was compounded with vitamin C in a 1:1 ratio, all subjects received vitamin C, at their assigned BH4 dose, twice a day during the first 2-week period. After this 2-week run-in period, subjects received BH4 only at their assigned dosage for the next 4 weeks. Weekly heart rate and BP measurements were made during the run-in period and treatment period. Mean blood pressure was calculated as: (SBP+2×DBP)/3. BH4 was then stopped and follow-up was performed at 1 and 4 weeks after discontinuation where BP and heart rate measurements were made. Routine chemistries and LFT's were drawn prior to initiation of medication, at the end of BH4 therapy and one month after discontinuation of BH4.
# brachial artery = test: Study 1: brachial artery flow-mediated and nitroglycerin-mediated vasodilation by ultrasound; type: in vivo, human
# Description: The technique was carried out as described in Prasad et al., Circulation, 2000. 101(20): p. 2349-54. Briefly, using an 11 MHz high resolution ultrasound transducer (Acuson Inc) in a temperature-controlled room, brachial diameter was measured above the antecubital fossa in the non-dominant arm. Flow-mediated vasodilation (FMD) was measured by inflating a BP cuff on the forearm to >200 mm Hg for 5 minutes, deflating rapidly, and measuring brachial diameter at 1 minute after onset of hyperemia. For all measurements three diameters were measured on three separate end-diastolic frames and averaged. To obtain the maximal brachial artery dilation that represents FMD the following equation was used: (average diameter with hyperemia−average baseline diameter)÷average baseline diameter X 100. To measure the endothelium-independent vasodilator response, subjects were given sublingual nitroglycerin 0.4 mg and the brachial diameter was measured as above after 5 minutes. To obtain endothelium-independent vasodilation the following equation was used: (average diameter post nitroglycerin-average baseline diameter)÷average baseline diameter X 100. For both study 1 and study 2, the primary end point after statistical analysis was a reduction of systolic, mean and diastolic BP during BH4 therapy. Secondary end points included improvement of endothelial function as FMD. Linear mixed effects models for repeated measures data were used to analyze change in BP from baseline to end of treatment period and differences in change between 100 mg and 200 mg dose groups. A quadratic term for week was included in the model to account for non-linear trends over the treatment period. Dose, week and week squared were the main effect terms in the model; dose by week and dose by week squared were the interaction terms in the model. Significant interaction terms indicate a difference in the pattern of change between the two dose groups. FMD data was analyzed using the two-tailed student t-test.
# hypertensive patients [2] = test: Study 1: blood pressure and heart rate during 8 weeks of oral BH4; type: in vivo, human
# Description: Prior studies have used parenteral infusion of BH4 or a single oral dose; thus it was not known whether long-term oral BH4 over a period of days to weeks would result in a sustained improvement in endothelial dysfunction. […] Two studies were conducted to investigate the duration of action of oral BH4 and the response of hypertensive subjects to different doses of BH4. […] Patients were continued on their current anti-hypertensive therapy which remained unchanged. […] BH4 powder was obtained from Schircks Laboratories (Jona, Switzerland). BH4 when administered with vitamin C was compounded with vitamin C at a ratio of 1 mg of vitamin C/1 mg BH4 into appropriate sized capsules. Subjects were advised to keep the pills in a freezer or refrigerator. Eight subjects were recruited, 3 male, mean age 60.5±10.9 years. Subjects were assigned to one of two groups. One group received BH4 10 mg/kg/day (n=4) and the other group received 5 mg/kg/day (n=4) given in two divided doses orally for 8 weeks. These dosages were based on dosing of BH4 used in phenylketonuria. Weekly BP measurements were made throughout the treatment period, and at one week and 6 weeks after discontinuation. Mean blood pressure was calculated as: (SBP+2×DBP)/3. For both study 1 and study 2, the primary end point after statistical analysis was a reduction of systolic, mean and diastolic BP during BH4 therapy. Secondary end points included improvement of endothelial function as FMD. Linear mixed effects models for repeated measures data were used to analyze change in BP from baseline to end of treatment period and differences in change between 100 mg and 200 mg dose groups. A quadratic term for week was included in the model to account for non-linear trends over the treatment period. Dose, week and week squared were the main effect terms in the model; dose by week and dose by week squared were the interaction terms in the model. Significant interaction terms indicate a difference in the pattern of change between the two dose groups. FMD data was analyzed using the two-tailed student t-test.
# [3] = test system: venous grafts and arteries; conditions: acute BH4; diabetic subjects undergoing coronary artery bypass graft surgery; cited from earlier work
# forearm blood flow = conditions: patients with diabetes or hypercholesterolemia but not normal subjects; cited from earlier work
smiles,measurement,setting,value
"C[C@H](O)[C@H](O)[C@H]1CNc2nc(N)[nH]c(=O)c2N1 [BH4, tetrahydrobiopterin]",coronary vessel flow,coronary vessel,increased
same,change in BP,"hypertensive patients [1]; Study 2, 100 mg b.i.d. of BH4",No statistically significant change
same,decrease in systolic BP,"hypertensive patients [1]; Study 2, 200 mg b.i.d. oral BH4, 4 weeks, p=0.03",significant decrease
same,decrease in mean BP,"hypertensive patients [1]; Study 2, 200 mg b.i.d. oral BH4, 4 weeks, p=0.04 by linear trend analysis",significant decrease
same,BP after discontinuation of BH4,"hypertensive patients [1]; Study 2, 200 mg b.i.d., 4 weeks after discontinuation",returned to baseline levels
same,BP after termination of therapy,"hypertensive patients [1]; Study 2, 200 mg b.i.d., a week after termination",remained lower
same,systolic BP mean lowering at nadir,"hypertensive patients [1]; Study 2, 200 mg b.i.d., after 3 weeks, p=0.04",16 mmHg
same,Mean BP after one week,"hypertensive patients [1]; Study 2, 200 mg b.i.d., p=0.02",significantly lower
same,decrease in diastolic BP,"hypertensive patients [1]; Study 2, 200 mg b.i.d., p=0.08",did not reach statistical significance
same,alteration in heart rate with BH4,"hypertensive patients [1]; Study 2, either group, 100 mg or 200 mg b.i.d.",no significant alteration
same,dose at which the BP-lowering effect was observed,"hypertensive patients [1]; oral BH4, free of any changes in heart rate",≥ 200 mg b.i.d.
same,time until reduction in BP was evident,hypertensive patients [1]; oral BH4 therapy,≤ 1 week
same,Flow-mediated vasodilation of the brachial artery,"brachial artery; Study 1, 6 weeks after termination of therapy, p=ns compared to baseline",3.7±1.3%
same,Flow-mediated vasodilation of the brachial artery,"brachial artery; Study 1, after 8 weeks of BH4, baseline mean 3.4±1%, p=0.05, n=6",8.2±3.4%
same,Nitroglycerin-mediated vasodilation,"brachial artery; Study 1, after BH4, 11.9±3% before, p=0.1, remained unchanged",16.1±5%
same,change in diastolic BP,hypertensive patients [2]; Study 1,did not reach statistical significance
same,change in heart rate with BH4,hypertensive patients [2]; Study 1,no significant change
same,differences between the 5 mg/kg and 10 mg/kg doses of BH4,hypertensive patients [2]; Study 1,no statistically significant differences
same,BP after discontinuation of therapy,"hypertensive patients [2]; Study 1, 6 weeks after discontinuation, p=ns compared to baseline",returned toward pre-treatment levels
same,systolic BP lower by a mean of,"hypertensive patients [2]; Study 1, after 3 weeks, p=0.004",13±9 mmHg
same,systolic BP lower by a mean of,"hypertensive patients [2]; Study 1, after 5 weeks, p=0.04, persisted for the 8 weeks of treatment",15±15 mmHg
same,reduction in systolic BP with BH4,"hypertensive patients [2]; Study 1, combined group (5 and 10 mg/kg/day oral, two divided doses, 8 weeks), p=0.005 quadratic trend",significant reduction
same,reduction in mean arterial BP with BH4,"hypertensive patients [2]; Study 1, combined group, 8 weeks, p=0.01",significant reduction
same,duration for which BP reduction was sustained,"hypertensive patients [2]; continuous therapy, without tachyphylaxis",up to 8 weeks
same,vascular function in venous grafts and arteries,[3],restores
same,NO-mediated effects on forearm blood flow,forearm blood flow,augment
